In patent US9924716B2, “Molecules having pesticidal utility, and intermediates, compositions, and processes, related thereto” (Dow AgroSciences LLC, priority 2016, dated 2018):

Assays:
Assay type in all cases: in vivo
[1] = tested on: Beet Armyworm (Spodoptera exigua, LAPHEG) second instar larvae; assay: Bioassay on Beet Armyworm (BAW), 128-well diet tray assay; conditions: Beet Armyworm, Table ABC Biological Results, read-out: BAW rating
Experimental: (§1) Certain molecules disclosed in this document were tested against BAW, CEW, and CL using procedures described in the following examples. In the reporting of the results, the “BAW, CEW, & CL Rating Table” was used (See Table Section).
Bioassays on BAW were conducted using a 128-well diet tray assay. one to five second instar BAW larvae were placed in each well (3 mL) of the diet tray that had been previously filled with 1 mL of artificial diet to which 50 μg/cm^2 of the test molecule (dissolved in 50 μL of 90:10 acetone-water mixture) had been applied (to each of eight wells) and then allowed to dry. Trays were covered with a clear self-adhesive cover and held at 25° C., 14:10 light-dark for five to seven days. Percent mortality was recorded for the larvae in each well; activity in the eight wells was then averaged. The results are indicated in the table entitled “Table ABC: Biological Results” (See Table Section).
(§2) Bioassays on BAW and CL were conducted according to the procedures outlined in Example A: Bioassays on Beet Armyworm (“BAW”) and Cabbage Looper (“CL”) using the indicated concentrations.

[2] = tested on: Cabbage Looper (Trichoplusia ni, TRIPNI) second instar larvae; assay: Bioassay on Cabbage Looper (CL), 128-well diet tray assay; conditions: Cabbage Looper, Table ABC Biological Results, read-out: CL rating
Experimental: as §1
Bioassays on CL were conducted using a 128-well diet tray assay. one to five second instar CL larvae were placed in each well (3 mL) of the diet tray that had been previously filled with 1 mL of artificial diet to which 50 μg/cm^2 of the test molecule (dissolved in 50 μL of 90:10 acetone-water mixture) had been applied (to each of eight wells) and then allowed to dry. Trays were covered with a clear self-adhesive cover and held at 25° C., 14:10 light-dark for five to seven days. Percent mortality was recorded for the larvae in each well; activity in the eight wells was then averaged. The results are indicated in the table entitled “Table ABC: Biological Results” (See Table Section).
as §2

[3] = tested on: Yellow Fever Mosquito (Aedes aegypti, AEDSAE) larvae; assay: Bioassay on Yellow Fever Mosquito (YFM), 96-well plate larval assay; conditions: Table ABC Biological Results
Experimental: Certain molecules disclosed in this document were tested against YFM using procedures described in the following paragraph. In the reporting of the results, the “GPA & YFM Rating Table” was used (See Table Section).
Master plates containing 400 μg of a molecule dissolved in 100 μL of dimethyl sulfoxide (DMSO) (equivalent to a 4000 ppm solution) are used. A master plate of assembled molecules contains 15 μL per well. To this plate, 135 μL of a 90:10 water:acetone mixture is added to each well. A robot (Biomek® NXP Laboratory Automation Workstation) is programmed to dispense 15 μL aspirations from the master plate into an empty 96-well shallow plate (“daughter” plate). There are 6 reps (“daughter” plates) created per master. The created daughter plates are then immediately infested with YFM larvae.
The day before plates are to be treated, mosquito eggs are placed in Millipore water containing liver powder to begin hatching (4 g. into 400 mL). After the daughter plates are created using the robot, they are infested with 220 μL of the liver powder/larval mosquito mixture (about 1 day-old larvae). After plates are infested with mosquito larvae, a non-evaporative lid is used to cover the plate to reduce drying. Plates are held at room temperature for 3 days prior to grading. After 3 days, each well is observed and scored based on mortality. The results are indicated in the table entitled “Table ABC: Biological Results” (See Table Section).

SMILES | pest or weed control at 50 µg/cm2 [1] | pest or weed control at 50 µg/cm2 [2] | YFM rating [3]
C[C@H](NC(=O)CC(F)(F)F)NC(=O)c1ccc(/C(F)=C/C(c2cc(Cl)cc(Cl)c2)C(F)(F)F)cc1C(F)(F)F (stereo partly drawn) [F11, 4-((Z)-3-(3,5-dichlorophenyl)-1,4,4,4-tetrafluorobut-1-en-1-yl)-2-(trifluoromethyl)-N—((R)-1-(3,3,3-trifluoropropanamido)ethyl)benzamide] | 50 to 100% | 50 to 100% | A (80-100)
C[C@H](NC(=O)CCC(F)(F)F)NC(=O)c1ccc(/C(F)=C/C(c2cc(Cl)cc(Cl)c2)C(F)(F)F)cc1C(F)(F)F (stereo partly drawn) [F12, 4-((Z)-3-(3,5-Dichlorophenyl)-1,4,4,4-tetrafluorobut-1-en-1-yl)-N—((R)-1-(4,4,4-trifluorobutanamido)ethyl)-2-(trifluoromethyl)benzamide] | 50 to 100% | 50 to 100% | A (80-100)
C[C@H](NC(=O)CC(F)(F)F)NC(=O)c1ccc(/C(F)=C/C(c2ccc(Cl)c(Cl)c2)C(F)(F)F)cc1C(F)(F)F (stereo partly drawn) [F13, 4-((Z)-3-(3,4-Dichlorophenyl)-1,4,4,4-tetrafluorobut-1-en-1-yl)-2-(trifluoromethyl)-N—((R)-1-(3,3,3-trifluoropropanamido)ethyl)benzamide] | 50 to 100% | 50 to 100% | A (80-100)
C[C@H](NC(=O)CCC(F)(F)F)NC(=O)c1ccc(/C(F)=C/C(c2ccc(Cl)c(Cl)c2)C(F)(F)F)cc1C(F)(F)F (stereo partly drawn) [F14, 4-((Z)-3-(3,4-Dichlorophenyl)-1,4,4,4-tetrafluorobut-1-en-1-yl)-N—((R)-1-(4,4,4-trifluorobutanamido)ethyl)-2-(trifluoromethyl)benzamide] | 50 to 100% | 50 to 100% | A (80-100)
C[C@H](NC(=O)CCC(F)(F)F)NC(=O)c1ccc(/C(F)=C/C(c2cc(Cl)c(Br)c(Cl)c2)C(F)(F)F)cc1C(F)(F)F (stereo partly drawn) [F15, 4-((Z)-3-(4-Bromo-3,5-dichlorophenyl)-1,4,4,4-tetrafluorobut-1-en-1-yl)-N—((R)-1-(4,4,4-trifluorobutanamido)ethyl)-2-(trifluoromethyl)benzamide] | 50 to 100% | 50 to 100% | A (80-100)
C=Cc1c(Cl)cc(C(/C=C(\F)c2ccc(C(=O)N[C@H](C)NC(=O)CC(F)(F)F)c(C(F)(F)F)c2)C(F)(F)F)cc1Cl (stereo partly drawn) [F18, 4-((Z)-3-(3,5-Dichloro-4-vinylphenyl)-1,4,4,4-tetrafluorobut-en-1-yl)-2-(trifluoromethyl)-N—((R)-1-(3,3,3-trifluoropropanamido)ethyl)benzamide] | 50 to 100% | 50 to 100% | A (80-100)
C=Cc1c(Cl)cc(C(/C=C(\F)c2ccc(C(=O)N[C@H](C)NC(=O)CCC(F)(F)F)c(C(F)(F)F)c2)C(F)(F)F)cc1Cl (stereo partly drawn) [F19, 4-((Z)-3-(3,5-Dichloro-4-vinylphenyl)-1,4,4,4-tetrafluorobut-1-en-1-yl)-N—((R)-1-(4,4,4-trifluorobutanamido)ethyl)-2-(trifluoromethyl)benzamide] | 50 to 100% | 50 to 100% | A (80-100)
C[C@H](NC(=O)CC(F)(F)F)NC(=O)c1ccc(/C(F)=C/C(c2cc(Br)cc(Br)c2)C(F)(F)F)cc1C(F)(F)F (stereo partly drawn) [F22, 4-((Z)-3-(3,5-Dibromophenyl)-1,4,4,4-tetrafluorobut-1-en-1-yl)-2-(trifluoromethyl)-N—((R)-1-(3,3,3-trifluoropropanamido)ethyl)benzamide] | 50 to 100% | 50 to 100% | A (80-100)
C[C@H](NC(=O)CCC(F)(F)F)NC(=O)c1ccc(/C(F)=C/C(c2cc(Br)cc(Br)c2)C(F)(F)F)cc1C(F)(F)F (stereo partly drawn) [F23, 4-((Z)-3-(3,5-Dibromophenyl)-1,4,4,4-tetrafluorobut-1-en-1-yl)-N—((R)-1-(4,4,4-trifluorobutanamido)ethyl)-2-(trifluoromethyl)benzamide] | 50 to 100% | 50 to 100% | A (80-100)
Cc1cc(C(/C=C(\F)c2ccc(C(=O)N[C@H](C)NC(=O)CC(F)(F)F)c(C(F)(F)F)c2)C(F)(F)F)cc(C)c1Cl (stereo partly drawn) [F24, 4-((Z)-3-(4-Chloro-3,5-dimethylphenyl)-1,4,4,4-tetrafluorobut-1-en-1-yl)-2-(trifluoromethyl)-N—((R)-1-(3,3,3-trifluoropropanamido)ethyl)benzamide] | 50 to 100% | 50 to 100% | A (80-100)
Cc1cc(C(/C=C(\F)c2ccc(C(=O)N[C@H](C)NC(=O)CCC(F)(F)F)c(C(F)(F)F)c2)C(F)(F)F)cc(C)c1Cl (stereo partly drawn) [F25, 4-((Z)-3-(4-Chloro-3,5-dimethylphenyl)-1,4,4,4-tetrafluorobut-1-en-1-yl)-N—((R)-1-(4,4,4-trifluorobutanamido)ethyl)-2-(trifluoromethyl)benzamide] | 50 to 100% | 50 to 100% | A (80-100)
C[C@H](NC(=O)CC(F)(F)F)NC(=O)c1ccc(/C(F)=C/C(c2cc(Br)c(Cl)c(Br)c2)C(F)(F)F)cc1C(F)(F)F (stereo partly drawn) [F26, 4-((Z)-3-(3,5-Dibromo-4-chlorophenyl)-1,4,4,4-tetrafluorobut-1-en-1-yl)-2-(trifluoromethyl)-N—((R)-1-(3,3,3-trifluoropropanamido)ethyl)benzamide] | 50 to 100% | 50 to 100% | A (80-100)
C[C@H](NC(=O)CCC(F)(F)F)NC(=O)c1ccc(/C(F)=C/C(c2cc(Br)c(Cl)c(Br)c2)C(F)(F)F)cc1C(F)(F)F (stereo partly drawn) [F30, 4-((Z)-3-(3,5-Dibromo-4-chlorophenyl)-1,4,4,4-tetrafluorobut-1-en-1-yl)-N—((R)-1-(4,4,4-trifluorobutanamido)ethyl)-2-(trifluoromethyl)benzamide] | 50 to 100% | 50 to 100% | A (80-100)
C[C@H](NC(=O)CC(F)(F)F)NC(=O)c1ccc(/C(F)=C/C(c2ccc(Br)c(Br)c2)C(F)(F)F)cc1C(F)(F)F (stereo partly drawn) [F32, 4-((Z)-3-(3,4-Dibromophenyl)-1,4,4,4-tetrafluorobut-1-en-1-yl)-2-(trifluoromethyl)-N—((R)-1-(3,3,3-trifluoropropanamido)ethyl)benzamide] | 50 to 100% | 50 to 100% | A (80-100)
C[C@H](NC(=O)CC(F)(F)F)NC(=O)c1ccc(/C(F)=C/C(c2cc(Cl)cc(Br)c2)C(F)(F)F)cc1C(F)(F)F (stereo partly drawn) [F36, 4-((Z)-3-(3-Bromo-5-chlorophenyl)-1,4,4,4-tetrafluorobut-1-en-1-yl)-2-(trifluoromethyl)-N—((R)-1-(3,3,3-trifluoropropanamido)ethyl)benzamide] | 50 to 100% | 50 to 100% | A (80-100)
C[C@H](NC(=O)CCC#N)NC(=O)c1ccc(/C(F)=C/C(c2cc(Cl)c(Cl)c(Cl)c2)C(F)(F)F)cc1C(F)(F)F (stereo partly drawn) [F41, N—((R)-1-(3-Cyanopropanamido)ethyl)-4-((Z)-1,4,4,4-tetrafluoro-3-(3,4,5-trichlorophenyl)but-1-en-1-yl)-2-(trifluoromethyl)benzamide] | 50 to 100% | 50 to 100% | A (80-100)
C[C@H](NC(=O)CC(F)(F)F)NC(=O)c1ccc(/C(F)=C/C(c2cc(Cl)c(Cl)c(Cl)c2)C(F)(F)F)c2ccccc12 (stereo partly drawn) [PF1, 4-((Z)-1,4,4,4-Tetrafluoro-3-(3,4,5-trichlorophenyl)but-1-en-1-yl)-N—((R)-1-(3,3,3-trifluoropropanamido)ethyl)-1-naphthamide] | 50 to 100% | 50 to 100% | B (More than 0-Less than 80)
